“Also recorded” adds a separate entry of the source. Marks after values point to notes of the source that are not given here.

Test [1] concerns K14-HPV16/E2 cervical dysplasia. Kind of test: In vivo phage homing to K14-HPV16/E2 cervical dysplasia (CIN-3). On the set-up: species or system mouse. The protocol:
(§1) The following cell lines were maintained in DMEM supplemented with 10% FCS: C8161 human melanoma, MDA-MB-435 human breast cancer, KRIB human osteosarcoma, and human prostate cancer cells PPC1, DU145. LNCaP human prostate cancer cell line was grown in RPMI 1640 medium with 10 mM HEPES, 1 mM sodium pyruvate and 1.5 g/L sodium bicarbonate supplemented with 10% FCS. M12 human prostate cancer cell line was cultured in RPMI 1640 with 5 μg/ml insulin-transferrin-sodium selenite (ITS), 2.5 μg/ml fungizone, 50 μg/ml gentamycin, 0.2 μM dexamethasone, 10 ng/ml epidermal growth factor (EGF), and 5% FCS (Bae et al., 1998). To produce tumors, nude BALB/c and C56BL/6 mice were subcutaneously (C8161, KRIB, and PPC1) or orthotopically ([…], PPC1, DU145, M12, and LNCaP) injected with 1×10^6 tumor cells. Transgenic mouse tumor models included TRAMP prostate cancer, MMTV-PyMT breast cancer, and K14-HPV16 cervical cancer. To initiate cervical carcinogenesis, female K14-HPV16 mice (Arbeit et al., 1994) were treated with 17β-estradiol (E2; (Arbeit et al., 1996; Giraudo et al., 2004). Briefly, one-month-old virgin female transgenic (heterozygous K14-HPV16, 1203#1) and nontransgenic (FVB/n) mice were anesthetized with isoflurane, and continuous release pellets that deliver E2 at doses of 0.05 mg over 60 days (Innovative Research of America, Sarasota, Fla., USA) were implanted subcutaneously in the dorsal back skin. Subsequent pellets were implanted at 3 and 5 months of age for a total of 6 months of hormone treatment. K14-HPV16 mice were maintained in the FVB/n background (FVB/n; The Jackson Laboratory). The mice were maintained in accordance with the University of California, San Francisco (UCSF) institutional guidelines governing the care of laboratory mice. The animal experimentation was approved by Animal Research Committees at UCSF or The Burnham Institute.
(§2) In vivo homing specificity of phage was tested as described (Hoffman, 2004). Briefly, mice bearing tumors were anesthetized and intravenously injected with 5×10^9 pfu of phage. After 7 min, the mice were perfused through the heart with PBS containing 0.5% BSA. The tumor and control organs were dissected from each mouse and the phage were rescued and tittered. For histology analysis, the mice were perfused with 4% PFA 30 min after the injection of phage. Tissues were embedded in Tissue-Tek O.C.T. and 5 μm sections were prepared for phage immunostaining.

In test [2] the test system is MMTV-PyMT premalignant lesions. As to the kind of experiment: In vivo phage homing to MMTV-PyMT premalignant lesions. On the set-up: species or system mouse. On the procedure: as §1
(§3) In vivo homing specificity of phage was tested as described (Hoffman, 2004). Briefly, mice bearing tumors were anesthetized and intravenously injected with 5×10^9 pfu of phage. […]

The subject of test [3] is cell suspension derived from pre-malignant prostate lesions. As to the kind of experiment: Phage binding to cell suspension derived from pre-malignant prostate lesions. The test is classed as cell-based, mouse. Particulars: phage clones. On the procedure: (§4) An NNK-encoded CX7C library display on T7Select415-1 phage (Novagen) was prepared as previously described (Laakkonen et al., 2002). Phage selection and validation have been described (Hoffman, 2004). A two-step procedure was designed for the selection of peptides targeting the tumor lymphatic vessels of pre-malignant prostate lesions and prostate tumor. First, the phage library was incubated with cells derived from normal prostate to subtract the phage that bind to normal prostate. Second, the anti-podoplanin magnetic beads were used to isolate lymphatic endothelial cells. 2-3 rounds of ex vivo selection and 2-3 rounds of in vivo selections were performed. For the ex vivo selections, cell suspensions were prepared from normal prostates of tumor-free littermates of TRAMP mice, pre-malignant prostates of 14- to 16-week-old TRAMP mice, and tumor tissues of 25- to 28-week-old TRAMP mice. Collagenase IA (1 mg/ml, Sigma) was used to disperse the tissues. About 1×10^7 normal prostate cells were incubated at 4° C. for 3 hrs with […] plaque forming units (pfu) of T7 phage displaying a CX7C peptide library. The samples were centrifuged at 1200 rpm for 10 min, the supernatant (the normal prostate-subtracted phage library) was recovered and then incubated overnight at 4° C. with 5×10^7 cells derived from pre-malignant prostate tissue or prostate tumor. The cells were washed to remove unbound phage, incubated with rat anti-mouse podoplanin for 45 min at 4° C., and washed three times with cold PBS containing 0.5% BSA. Podoplanin-positive cells were then isolated using M450 sheep anti-rat IgG Dynabeads (M450; Dynal, Oslo, Norway). Phage that bound to the podoplanin-positive cell population were rescued and amplified in E. coli. In vivo phage library screening was performed as described (Laakkonen et al., 2002).

In test [4] the test system is K14-HPV16/E2 and MMTV-PyMT lesions and tumors. As to the kind of experiment: Fluorescent AGR peptide homing to lesions and tumors of K14-HPV16/E2 and MMTV-PyMT mice. The class given is in vivo, mouse. The protocol: (§5) The frozen sections were prepared for immunohistological analysis.
The next test concerns KRIB xenografts. As to the kind of experiment: In vivo phage homing to KRIB xenografts. Further details: species or system mouse. The protocol: as §1, §2
Another test relates to K14-HPV16 skin cancer. Kind of test: In vivo homing to K14-HPV16 skin cancer. On the set-up: species or system mouse. On the procedure: as §1, §2
Test [5] has as its system MDA-MB-435 orthotopic xenografts. Kind of test: In vivo phage homing to MDA-MB-435 orthotopic xenografts. Further details: species or system mouse. The protocol: as §1, §2
In test [6] the test system is M12 orthotopic xenografts. As to the kind of experiment: In vivo phage homing to M12 orthotopic xenografts. Further details: species or system mouse. Particulars: for phage homing to M12 xenografts (in words): i.v. injected phage. On the procedure: as §1, §2
Test [7] relates to LNCaP orthotopic xenografts. Kind of test: In vivo phage homing to LNCaP orthotopic xenografts. Particulars: for phage homing to LNCaP xenografts (in words): i.v. injected phage. On the set-up: species or system mouse. The protocol:
as §1, §2

Another test deals with PPC1 s.c. xenografts. As to the kind of experiment: In vivo phage homing to PPC1 s.c. xenografts. On the set-up: species or system mouse. On the procedure: as §1, §3
Test [8] has as its system tumor derived cell suspensions (TRAMP). As to the kind of experiment: Phage binding to TRAMP tumor derived cell suspensions. Particulars: phage clones. The class given is cell-based, mouse. On the procedure: as §4
In test [9] the test system is K14-HPV16/E2 cervical lesions. Kind of test: Distribution of fluorescent peptides in K14-HPV16/E2 mice with cervical lesions. The class given is in vivo, mouse. Particulars: labeled peptide i.v. On the procedure:
as §5

The subject of test [10] is PPC1 tumor-derived cell suspensions. Kind of test: REA phage binding to PPC1 tumor-derived cell suspensions. The test is classed as cell-based. The following applies: listed as REA-phage.
The subject of the next test is cultured PPC1 cells. Kind of test: REA phage binding to cultured PPC1 cells. The test is classed as cell-based, human. Particulars: listed as REA-phage.
[11] abbreviates: phage homing in vivo, K14-HPV16/E2 cervical dysplasia.
Where [12] appears, read: phage homing in vivo, MMTV-PyMT premalignant lesions.
[13] abbreviates: phage homing in vivo, KRIB xenografts.
[14] abbreviates: phage homing in vivo, K14-HPV16 skin cancer.
Setting [15] is: phage homing in vivo, MDA-MB-435 orthotopic xenografts.
[16] abbreviates: phage homing in vivo, M12 orthotopic xenografts.
Where [17] appears, read: phage homing in vivo, LNCaP orthotopic xenografts.
Where [18] appears, read: phage homing in vivo, PPC1 s.c. xenografts.

Regarding “CAGRRSAYC [homing peptide for pre-malignant TRAMP prostate lesions]”, the “phage homing to K14-HPV16/E2 pre-malignant cervical lesions (in words)” value in test [1] (i.v. injected phage) is “little homing of the phage”. Also, in test [1] (setting [11]), the “Fold over control phage” value is recorded as 5 fold and the “Specific Homing” value is recorded as “No”. Also, the “phage homing to MMTV-PyMT premalignant lesions (in words)” value in test [2] (i.v. injected phage) was “little homing of the phage”. Besides, in [2] (setting [12]), the “Fold over control phage” value is reported as 2 fold and the “Specific Homing” value is “No”. In addition, the “binding to cell suspension from pre-malignant prostate lesions (in words)” value in test [3] was “bound”. Moreover, in test [4], the “peptide binding to MMTV-PyMT dysplastic breast lesion” value is recorded as “weakly positive”; the “peptide homing to lesions or malignant tumors in K14-HPV16/E2 and MMTV-PyMT models” value is “no detectable homing of the peptide”.

Consider “CREAGRKAC [homing peptide for prostate tumor lymphatics]”, for which the “phage homing to KRIB xenografts (in words)” value in the test on KRIB xenografts (i.v. injected phage) is “negative for REA binding”. Moreover, the “Fold over control phage” value in the test with KRIB xenografts (setting [13]) is given as 7^‡ fold; in the test with K14-HPV16 skin cancer (setting [14]), 4 fold; in test [5] (setting [15]), 4 fold; in test [6] (setting [16]) it was 24 fold; in test [7] (setting [17]) it was 20 fold; in the test with PPC1 s.c. xenografts (setting [18]), 6 fold. Also, the “Specific Homing” value is “Yes” in the test with KRIB xenografts (setting [13]); “No” with K14-HPV16 skin cancer (setting [14]); “No” in [5] (setting [15]); “Yes” in test [6] (setting [16]); “Yes” in [7] (setting [17]); “No” in the test on PPC1 s.c. xenografts (setting [18]). In the test on K14-HPV16 skin cancer (i.v. injection, K14-HPV16 mice), the “homing to K14-HPV16 skin cancers (in words)” value is “negative for REA binding”. Also, in test [5] (i.v. injected phage), the “phage homing to MDA-MB-435 tumors (in words)” value was “negative for REA binding”. Also, the “phage homing to M12 xenografts (in words)” value in test [6] (listed as REA phage) is on record as “homed”; in test [6] (listed as REA-phage), “Significant phage homing”. Further, the “phage homing to LNCaP xenografts (in words)” value is “homed” in test [7] (listed as REA phage) and “Significant phage homing” in test [7] (listed as REA-phage). For the same sequence, in the test on PPC1 s.c. xenografts (i.v. injected phage, 7 min circulation), the “phage homing to subcutaneous PPC1 xenografts versus orthotopic (in words)” value is recorded as “homed less efficiently”. Also, the “binding to TRAMP tumor derived cell suspensions (in words)” value in test [8] is “robust binding”. Besides, the “fluorescent peptide in K14-HPV16/E2 cervical lesions/tumors (in words)” value in test [9] is “slightly positive”. Besides, the “phage binding to PPC1 tumor-derived cell suspensions (in words)” value in test [10] is on record as “binds to cell suspensions derived from PPC1 tumors; also recorded: strongly bound”. Also, the “phage binding to cultured PPC1 cells (in words)” value in the test on cultured PPC1 cells is listed as “not to cultured PPC1 cells; also recorded: did not bind”.

The values above are taken from patent US8536132B2, “Lymphatic zip codes in tumors and pre-malignant lesions” (Sanford-Burnham Medical Research Institute, priority 2006, dated 2013).
